Tests used:
[1] = test system: Prevotella intermedia; experiment: Broth dilution assay (Example 2); assay type: cell-based; conditions: Ca(OH)2 0.85 mg/mL alone, or combined with ½ MIC of D-CTL
Description: (§1) Enterococcus faecalis (CCM 2541) was obtained from the Czechoslovac Collection of Microorganisms (Czech Republic) Bacteria were cultured in Anaerobe Basal Broth (Oxoid, France) at 37° C. in anaerobic conditions. Candida albicans (ATCC© 10231™) was cultured in Sabouraud medium (BD, France) supplemented with tetracycline (10 μg/mL) and cefotaxime (10 μg/mL).
(§2) An overnight culture of each pathogen was diluted (OD600 nm=0.001) and incubated at 37° C. in 96-plates in the presence of different concentrations of antimicrobial agents. When testing Ca(OH)2, the pH of the solution was measured with by pH meter. (CyberScan pH 510©, Eutech, France). After 24 h incubation, the OD620 nm was evaluated with a spectrophotometer (Multikan EX, ThermoScientific, France). Each assay was done at least in triplicate. For each set of assay, the standard deviation was determined.

[2] = test system: Candida albicans; experiment: Broth dilution assay (Example 2); assay type: cell-based; conditions: Ca(OH)2 0.85 mg/mL alone, or combined with ½ MIC of D-CTL
Description: as §1, §2

[3] = test system: Fusobacterium nucleatum; experiment: Broth dilution assay (Example 2); assay type: cell-based
Description: as §1, §2

[4] = test system: Parvimonas micra; experiment: Broth dilution assay (Example 2); assay type: cell-based; conditions: Ca(OH)2 0.85 mg/mL alone, or combined with ½ MIC of D-CTL
[5] = test system: HGF-1 cells; experiment: MTT cytotoxicity assay on HGF-1 cells (Example 2); assay type: cell-based, human
Description: The mammalian cell line HGF-1 (ATCC® CRL-2014™) was commercially obtained by ATCC and cultured at 37° C. and 5% CO2 in Dulbecco's Modified Eagle's Medium (Thermo Fisher Scientific, France) supplemented with 10% (v/v) bovine calf serum (Dutscher, France) and 1% (v/v) penicillin-streptomycin (Thermo Fisher Scientific, France).
The cytotoxicity of the antimicrobial agents was examined by MTT [3(4,5-dimethylthiazol-2-yl)-2,5 diphenyl tetrazolium bromide] assays (Scientific Life—France) against HGF-1 cells. Cells were incubated for 24 h in a 96-wells plate before being treated with various concentrations of Ca(OH)2 alone or supplemented with the peptide. As a control, cells were plated in each 96-wells without being treated. After 24 h, 48 h and 72 h incubation, cells were carefully washed with PBS and treated with MTT at a final concentration of 0.25 mg/mL. HGF-1 cells were then incubated for 2 h at 37° C. before being lysed with isopropanol/HCL (48:2, v/v). Cell viability was assessed by reading the OD540 nm with a Multiskan EX microplate spectrophotometer (Thermo Fisher Scientific, France). The OD540 nm of each well was then compared to the […] of the control. For each set of experiments, standard deviations were determined.

[6] = test system: Enterococcus faecalis; assay type: cell-based; conditions: saturated solution of Ca(OH)2 (1.7 mg/mL, pH 9)
Description: as §1, §2

[7] = literature (Schmidtchen et al., 2002); cited from earlier work

Compound	inhibition of P. intermedia growth [1]	inhibition of C. albicans growth [2]	inhibition of F. nucleatum growth ([3]; Ca(OH)2 0.85 mg/mL alone, or combined with ½ MIC of D-CTL)	inhibition of the growth of F. nucleatum ([3]; saturated solution of Ca(OH)2 (1.7 mg/mL, pH 9))	inhibition of P. micra growth [4]	toxicity on HGF-1 ([5]; Ca(OH)2 0.425 g/L, after three days incubation)	toxicity on HGF-1 ([5]; Ca(OH)2 0.85 g/L, after three days incubation)	toxicity on HGF-1 ([5]; saturated solution of Ca(OH)2 (1.7 mg/mL), after 24 h)	toxicity on HGF-1 ([5]; saturated solution of Ca(OH)2 (1.7 mg/mL), after 72 h incubation)	toxicity on HGF-1 ([5]; saturated solution of Ca(OH)2 (1.7 mg/mL), second of three values, time not clearly printed)	inhibition rate of E. faecalis growth [6]	degradation by the virulence factors of E. faecalis [7]
[Ca+2].[OH-].[OH-] [Ca(OH)2]	77%±6%	87%±2%	30%±10%	100% (±1%)	15%±6%	below 4% (±7%)	below 4% (±7%)	20% (±7%)	50% (±6%)	14% (±11%)	58% (±5%)	
LL-37												completely degraded

Reference: US20190375791A1, “NEW D-CONFIGURED CATESLYTIN PEPTIDE” (priority 2016, published 2019)
